# Assay results published in patent US20210040118A1, “IMMUNOMODULATORS, COMPOSITIONS AND METHODS THEREOF” (BETTA PHARMACEUTICALS CO., LTD, priority 2018, published 2021).
# Biological target: T1, PD-1/PD-L1 (Homo sapiens, UniProt Q9NZQ7)
# T1 construct: Recombinant human PD-L1 protein (19-238) with a His-tag at the C-terminus; purchased AcroBiosystems PD1-H5229 (PD-L1); PD1-H5257 (PD-1)
# Test: PD-1/PD-L1 homogenous time-resolved fluorescence (HTRF) binding assay
# Settings: recombinant human PD-L1 (19-238) His-tag / human PD-1 (25-167) Fc tag
# Procedure: Resolved Fluorescence (HTRF) Binding Assay
# The assays were conducted in a standard black 384-well polystyrene plate with a final volume of 20 μL. Inhibitors were first serially diluted in DMSO and then added to the plate wells before the addition of other reaction components. The final concentration of DMSO in the assay was 1%. The assays were carried out at 25° C. in the PBS buffer (pH 7.4) with 0.05% Tween-20 and 0.1% BSA. Recombinant human PD-L1 protein (19-238) with a His-tag at the C-terminus was purchased from AcroBiosy stems (PD1-H5229). Recombinant human PD-1 protein (25-167) with Fc tag at the C-terminus was also purchased from AcroBiosystems (PD1-H5257). PD-L1 and PD-1 proteins were diluted in the assay buffer and 10 μL was added to the plate well. Plates were centrifuged and proteins were preincubated with inhibitors for 40 min. The incubation was followed by the addition of […] of HTRF detection buffer supplemented with Europium cryptate-labeled anti-human IgG (PerkinElmer-AD0212) specific for Fc and anti-His antibody conjugated to SureLight®-Allophycocyanin (APC, PerkinElmer-AD0059H). After centrifugation, the plate was incubated at 25° C. for 60 min. Before reading on a PHERAstar FS plate reader (665 nm/620 nm ratio). Final concentrations in the assay were […] PD1, 10 nM PD-L1, 1 nM europium anti-human IgG and 20 nM anti-His-Allophycocyanin. IC50 determination was performed by fitting the curve of percent control activity versus the log of the inhibitor concentration using the GraphPad Prism 5.0 software.
# Data obtained for the Example compounds using the PD-1/PD-L1 homogenous time-resolved fluorescence (HTRF) binding assay described in Example A is provided in Table 4.
# T1 sequence (Q9NZQ7 19-238): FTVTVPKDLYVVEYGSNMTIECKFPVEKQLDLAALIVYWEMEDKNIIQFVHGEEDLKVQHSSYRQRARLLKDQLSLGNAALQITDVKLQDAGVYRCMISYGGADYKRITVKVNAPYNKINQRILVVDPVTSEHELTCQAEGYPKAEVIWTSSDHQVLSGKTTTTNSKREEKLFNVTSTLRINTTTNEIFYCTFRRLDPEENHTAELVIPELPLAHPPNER
Compound,IC50 (class symbols) [nM],IC50 (numeric values) [nM]
"O=C(c1nc2c(s1)CN(CC(F)F)CC2)N1CCc2c(-c3cccc4c3CCN4C(=O)c3nc4c(s3)CN(CC(F)F)CC4)cccc21 [Example 85, [4,4′-biindoline]-1,1′-diylbis((5-(2,2-difluoroethyl)-4,5,6,7-tetrahydrothiazolo[5,4-c]pyridin-2-yl)methanone)]",25 to 100,–
"Cc1c(NC(=O)c2nc3c(s2)CNCC3)cccc1-c1ccccc1 [Com. EX. No. 1, N-(2-methyl-[1,1′-biphenyl]-3-yl)-4,5,6,7-tetrahydrothiazolo[5,4-c]pyridine-2-carboxamide, reference compound]",–,212
"COP(=O)(CCN1CCc2nc(C(=O)N3CCc4c(-c5cccc6c5CCN6C(=O)c5nc6c(s5)CN(CCP(=O)(OC)OC)CC6)cccc43)sc2C1)OC [Example 124, dimethyl (2-(2-(1′-(5-(2-(dimethoxyphosphoryl)ethyl)-4,5,6,7-tetrahydrothiazolo[5,4-c]pyridine-2-carbonyl)-[4,4′-biindoline]-1-carbonyl)-6,7-dihydrothiazolo[5,4-c]pyridin-5(4H)-yl)ethyl)phosphonate]",< 25,–
"O=C(c1nc2n(n1)CCNC2)N1CCc2c(-c3cccc4c3CCN4C(=O)c3nc4n(n3)CCNC4)cccc21 [Example 136, [4,4′-biindoline]-1,1′-diylbis((5,6,7,8-tetrahydro-[1,2,4]triazolo[1,5-a]pyrazin-2-yl)methanone)]",100 to 200,–
"CC(=O)NCCNCc1cnc2c(Nc3cccc(-c4cccc(Nc5nccc6cc(CNCCNC(C)=O)cnc56)c4C)c3C)nccc2c1 [Example 152, N,N′-((((((2,2′-dimethyl-[1,1′-biphenyl]-3,3′-diyl)bis(azanediyl))bis(1,7-naphthyridine-8,3-diyl))bis(methylene))bis(azanediyl))bis(ethane-2,1-diyl))diacetamide]",< 25,–
"Cc1c(NC(=O)c2ccc3c(n2)CCNC3)cccc1-c1cccc(NC(=O)c2ccc3c(n2)CCN(CCO)C3)c1C [Example 186, N-(2,2′-dimethyl-3′-(5,6,7,8-tetrahydro-1,6-naphthyridine-2-carboxamido)-[1,1′-biphenyl]-3-yl)-6-(2-hydroxyethyl)-5,6,7,8-tetrahydro-1,6-naphthyridine-2-carboxamide]",< 25,–
"O=C(Nc1cccc(-c2cccc(NC(=O)c3nc4c(s3)CNCC4)c2Cl)c1Cl)c1ncc(CNCCO)s1 [Example 97, N-(2,2′-dichloro-3′-(5-(((2-hydroxyethyl)amino)methyl)thiazole-2-carboxamido)-[1,1′-biphenyl]-3-yl)-4,5,6,7-tetrahydrothiazolo[5,4-c]pyridine-2-carboxamide]",< 25,–
"Cc1c(Nc2nccc3cc(CNC[C@@H](O)CC(=O)O)cnc23)cccc1-c1cccc(Nc2nccc3cc(CNC[C@@H](O)CC(=O)O)cnc23)c1C [Example 143, (3S,3'S)-4,4′-(((((2,2′-dimethyl-[1,1′-biphenyl]-3,3′-diyl)bis(azanediyl))bis(1,7-naphthyridine-8,3-diyl))bis(methylene))bis(azanediyl))bis(3-hydroxybutanoic acid)]",< 25,–
"Cc1c(NC(=O)c2nc3c(s2)CN(C)CC3)cccc1-c1cccc(NC(=O)c2nc3c(s2)CN(C)CC3)c1C [Example 2, N,N′-(2,2′-dimethyl-[1,1′-biphenyl]-3,3′-diyl)bis(5-methyl-4,5,6,7-tetrahydrothiazolo[5,4-c]pyridine-2-carboxamide)]",–,0.74
"CNC(C)c1cnc(C(=O)Nc2cccc(-c3cccc(NC(=O)c4cnc(C(C)NC)cn4)c3C)c2C)cn1 (stereo not drawn) [Example 180, N,N′-(2,2′-dimethyl-[1,1′-biphenyl]-3,3′-diyl)bis(5-(1-(methylamino)ethyl)pyrazine-2-carboxamide)]",< 25,–

# Further lines, results first:
IC50 (class symbols) [nM],IC50 (numeric values) [nM],Compound
< 25,–,"Cc1c(Nc2nccc3cc(CN4CC(O)C4)cnc23)cccc1-c1cccc(Nc2nccc3cc(CN4CC(O)C4)cnc23)c1C [Example 150, 1,1′-((((2,2′-dimethyl-[1,1′-biphenyl]-3,3′-diyl)bis(azanediyl))bis(1,7-naphthyridine-8,3-diyl))bis(methylene))bis(azetidin-3-ol)]"
< 25,–,"Cc1c(Nc2nccc3cc(CNCCO)cnc23)cccc1-c1cccc(Nc2nccc3cc(CNCC(F)(F)F)cnc23)c1C [Example 156, 2-(((8-((2,2′-dimethyl-3′-((3-(((2,2,2-trifluoroethyl)amino)methyl)-1,7-naphthyridin-8-yl)amino)-[1,1′-biphenyl]-3-yl)amino)-1,7-naphthyridin-3-yl)methyl)amino)ethan-1-ol]"
< 25,–,"CCOC(=O)CN1CCc2nc(C(=O)Nc3cccc(-c4cccc(NC(=O)c5ccc6c(n5)CCNC6)c4C)c3C)ccc2C1 [Example 170, ethyl 2-(2-((2,2′-dimethyl-3′-(5,6,7,8-tetrahydro-1,6-naphthyridine-2-carboxamido)-[1,1′-biphenyl]-3-yl)carbamoyl)-7,8-dihydro-1,6-naphthyridin-6(5H)-yl)acetate]"
< 25,–,"Cc1c(NC(=O)c2nnc(C3(NC(=N)N)CCC3)s2)cccc1-c1cccc(NC(=O)c2nnc(C3(NC(=N)N)CCC3)s2)c1C [Example 38, N,N′-(2,2′-dimethyl-[1,1′-biphenyl]-3,3′-diyl)bis(5-(1-guanidinocyclobutyl)-1,3,4-thiadiazole-2-carboxamide)]"
< 25,–,"Cc1c(NC(=O)c2nc3c(s2)CN(CCCN2CCOCC2)CC3)cccc1-c1cccc(NC(=O)c2nc3c(s2)CN(CCCN2CCOCC2)CC3)c1C [Example 81, N,N′-(2,2′-dimethyl-[1,1′-biphenyl]-3,3′-diyl)bis(5-(3-morpholinopropyl)-4,5,6,7-tetrahydrothiazolo[5,4-c]pyridine-2-carboxamide)]"
< 25,–,"Cc1c(NC(=O)c2nc3c(n2C)CNCC3)cccc1-c1cccc(NC(=O)c2nc3c(n2C)CNCC3)c1C [Example 64, N,N′-(2,2′-dimethylbiphenyl-3,3′-diyl)bis(3-methyl-4,5,6,7-tetrahydro-3H-imidazo[4,5-c]pyridine-2-carboxamide)]"
< 25,–,"Cc1c(NC(=O)c2ccc3c(n2)CCNC3)cccc1-c1cccc(NC(=O)c2ccc3c(n2)CCNC3)c1C [Example 167, N,N′-(2,2′-dimethyl-[1,1′-biphenyl]-3,3′-diyl)bis(5,6,7,8-tetrahydro-1,6-naphthyridine-2-carboxamide)]"
< 25,–,"Cc1c(NC(=O)c2nc3c(s2)CN(CC(=O)O)CC3)cccc1-c1cccc(NC(=O)c2nc3c(s2)CN(CC(=O)O)CC3)c1C [Example 4, 2,2′-((((2,2′-dimethyl-[1,1′-biphenyl]-3,3′-diyl)bis(azanediyl))bis(carbonyl))bis(6,7-dihydrothiazolo[5,4-c]pyridine-2,5(4H)-diyl))diacetic acid]"
< 25,–,"N#Cc1c(NC(=O)c2nc3c(s2)CNCC3)cccc1-c1cccc(NC(=O)c2nc3c(s2)CNCC3)c1C#N [Example 74, N,N′-(2,2′-dicyano-[1,1′-biphenyl]-3,3′-diyl)bis(4,5,6,7-tetrahydrothiazolo[5,4-c]pyridine-2-carboxamide)]"
< 25,–,"Cc1c(NC(=O)c2ccc3c(n2)CCN(C)C3)cccc1-c1cccc(NC(=O)c2ccc3c(n2)CCN(C)C3)c1C [Example 175, N,N′-(2,2′-dimethyl-[1,1′-biphenyl]-3,3′-diyl)bis(6-methyl-5,6,7,8-tetrahydro-1,6-naphthyridine-2-carboxamide)]"
< 25,–,"Cc1c(NC(=O)c2nc3c(s2)CN(CCO)CC3)cccc1-c1cccc(NC(=O)c2nc3c(s2)CN(CCO)CC3)c1C [Example 82, N,N′-(2,2′-dimethyl-[1,1′-biphenyl]-3,3′-diyl)bis(5-(2-hydroxyethyl)-4,5,6,7-tetrahydrothiazolo[5,4-c]pyridine-2-carboxamide)]"
< 25,–,"Cc1c(NC(=O)c2nnc([C@@H]3CCCN3)s2)cccc1-c1cccc(NC(=O)c2nnc([C@@H]3CCCN3)s2)c1C [Example 3, N,N′-(2,2′-dimethyl-[1,1′-biphenyl]-3,3′-diyl)bis(5-((S)-pyrrolidin-2-yl)-1,3,4-thiadiazole-2-carboxamide)]"
< 25,–,"O=C(Nc1cccc(-c2cccc(Nc3nccc4cc(CNCCO)cnc34)c2Cl)c1Cl)c1ncc(CNCCO)s1 [Example 98, N-(2,2′-dichloro-3′-((3-(((2-hydroxyethyl)amino)methyl)-1,7-naphthyridin-8-yl)amino)-[1,1′-biphenyl]-3-yl)-5-(((2-hydroxyethyl)amino)methyl)thiazole-2-carboxamide]"
< 25,–,"Cc1c(Nc2nccc3cc(CNCC(=O)O)cnc23)cccc1-c1cccc(Nc2nccc3cc(CNC[C@@H](O)CC(=O)O)cnc23)c1C [Example 141, (S)-4-(((8-((3′-((3-(((carboxymethyl)amino)methyl)-1,7-naphthyridin-8-yl)amino)-2,2′-dimethyl-[1,1′-biphenyl]-3-yl)amino)-1,7-naphthyridin-3-yl)methyl)amino)-3-hydroxybutanoic acid]"
